The supplement of paper PMC10307832

Experiments:
Assay in all cases: relative viability (nuclei count vs DMSO), 5 days (fraction); higher = more cells survive
[1] = compound: CN(C)C(=N)NC(=N)N [Metformin] + N=C(N)NC(=N)NCCc1ccccc1 [Phenformin] (partner 250 µM)
In short: (§1)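 For relative viability, nuclei counts in treated wells were divided by those in vehicle wells. Lung cancer cell lines had been pin-tool dosed in 1536-well plates the day after seeding and cultured for 5 days, then fixed and stained in one step (final 0.05% Triton X-100, 1% formaldehyde, 1 ug/ml Hoechst) and imaged at 4×. Doses were one drug alone or a fixed anchor-drug dose plus five library-drug doses (not always all listed) in √10 steps, and values are duplicate-plate medians.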

[2] = compound: N#CC1(c2ccc(NC(=O)c3cccnc3NCc3ccncc3)cc2)CCCC1 [Apatinib] + O=C(CCCCCCC(=O)Nc1ccccc1)NO [Vorinostat] (partner 1 µM)
In short: as §1

[3] = compound: N#CC1(c2ccc(NC(=O)c3cccnc3NCc3ccncc3)cc2)CCCC1 [Apatinib] + CS(=O)(=O)CCNCc1ccc(-c2ccc3ncnc(Nc4ccc(OCc5cccc(F)c5)c(Cl)c4)c3c2)o1 [Lapatinib] (partner 2 µM)
In short: as §1

[4] = compound: CN(C)C(=N)NC(=N)N [Metformin] + O=C(CCCCCCC(=O)Nc1ccccc1)NO [Vorinostat] (partner 1 µM)
In short: as §1

Row | Cell Line | relative viability ([1]; first compound 10 µM) | relative viability ([1]; first compound 31.62 µM) | relative viability ([1]; first compound 100 µM) | relative viability ([1]; first compound 316.23 µM) | relative viability ([1]; first compound 1000 µM) | relative viability ([2]; first compound 0.08 µM) | relative viability ([2]; first compound 0.253 µM) | relative viability ([2]; first compound 0.8 µM) | relative viability ([2]; first compound 2.53 µM) | relative viability ([2]; first compound 8 µM) | relative viability ([3]; first compound 0.08 µM) | relative viability ([3]; first compound 0.253 µM) | relative viability ([3]; first compound 0.8 µM) | relative viability ([3]; first compound 2.53 µM) | relative viability ([3]; first compound 8 µM) | relative viability ([4]; first compound 10 µM) | relative viability ([4]; first compound 31.62 µM) | relative viability ([4]; first compound 100 µM) | relative viability ([4]; first compound 316.23 µM) | relative viability ([4]; first compound 1000 µM)
1 | NCI-H2009 | 0.504 | 0.499 | 0.565 | 0.412 | 0.425 | 0.701 | 0.776 | 0.669 | 0.627 | 0.48 | 0.993 | 0.893 | 0.863 | 0.795 | 0.538 | 0.715 | 0.706 | 0.857 | 0.83 | 0.75
2 | HCC-78 | 0.685 | 0.716 | 0.627 | 0.651 | 0.782 | 0.524 | 0.396 | 0.427 | 0.402 | 0.374 | 0.568 | 0.731 | 0.942 | 0.829 | 0.748 |  | 0.479 | 0.559 | 0.516 | 0.417
3 | LCLC-97TM1 | 0.478 | 0.43 | 0.332 | 0.398 | 0.477 | 0.911 | 0.758 | 0.695 | 0.577 | 0.337 | 0.845 | 0.818 | 0.586 | 0.604 | 0.475 |  | 0.675 | 0.711 | 0.601 | 0.704
4 | NCI-H661 | 0.284 | 0.262 | 0.264 | 0.267 | 0.267 | 0.814 | 0.75 | 0.739 | 0.722 | 0.716 | 0.598 | 0.59 | 0.504 | 0.477 | 0.391 | 0.851 | 0.928 | 0.927 | 0.818 | 0.82
5 | NCI-H650 | 0.446 | 0.509 | 0.357 | 0.436 | 0.494 | 0.494 | 0.422 | 0.391 | 0.264 | 0.42 | 0.799 | 0.982 | 0.784 | 0.74 | 0.583 | 0.425 | 0.413 | 0.405 | 0.556 | 0.533
6 | NCI-H1915 |  | 0.357 | 0.384 | 0.352 | 0.365 | 0.578 | 0.519 | 0.495 | 0.37 | 0.314 | 1.04 | 0.94 | 0.892 | 0.802 | 0.935 |  | 0.499 | 0.498 | 0.46 | 0.517
7 | COR-L23 | 0.437 | 0.46 | 0.487 | 0.431 | 0.146 | 0.516 | 0.461 | 0.333 | 0.415 | 0.427 | 0.919 | 1.16 | 1.05 | 0.792 | 0.722 | 0.312 | 0.304 | 0.406 | 0.288 | 0.362
8 | NCI-H3122 | 0.307 | 0.303 | 0.322 | 0.287 | 0.288 | 0.995 | 0.968 | 1.07 | 0.734 | 0.895 | 1.03 | 1.02 | 1.01 | 0.989 | 1.01 | 0.459 | 0.942 | 0.87 | 0.807 | 0.775
9 | LOU-NH91 | 0.731 | 0.593 | 0.545 | 0.755 | 0.734 | 0.974 | 0.97 | 0.82 | 0.816 | 0.82 | 0.727 | 0.726 | 0.754 | 0.712 | 0.77 | 0.86 | 0.852 | 0.839 | 0.925 | 0.833
10 | NCI-H2087 |  | 0.435 | 0.507 | 0.398 | 0.386 | 0.768 | 0.591 | 0.747 | 0.579 | 0.688 | 0.877 | 0.982 | 1.09 | 0.793 | 0.891 | 0.595 | 0.657 | 0.637 | 0.567 | 0.671
11 | LK-2 | 0.758 | 0.636 | 0.374 | 0.381 | 0.667 | 0.267 | 0.269 | 0.248 | 0.145 | 0.228 | 0.7 | 0.827 | 0.878 | 0.782 | 0.73 | 0.232 | 0.264 | 0.273 | 0.339 | 0.397
12 | IA-LM |  |  |  |  |  | 0.975 | 0.968 | 0.958 | 0.765 | 0.92 | 0.814 | 0.677 | 0.772 | 0.6 | 0.305 | 1.01 | 1.04 | 1.03 | 0.901 | 0.962
13 | ChaGo-K-1 | 0.539 | 0.498 | 0.488 | 0.489 | 0.557 | 0.838 | 0.843 | 0.789 | 0.656 | 0.565 |  |  |  |  |  | 0.663 | 0.777 | 0.751 | 0.667 | 0.723
14 | NCI-H1648 |  |  |  |  |  | 0.682 | 0.503 | 0.403 | 0.54 | 0.276 |  |  |  |  |  |  | 0.5 | 1.07 | 0.703 | 0.91
15 | NCI-H1623 | 0.556 | 0.553 | 0.569 | 0.577 | 0.371 |  |  |  |  |  |  |  |  |  |  |  |  |  |  | 
16 | NCI-H1563 | 0.704 | 0.702 | 0.647 | 0.663 | 0.56 |  |  |  |  |  | 0.682 | 1.03 | 0.943 | 0.891 | 0.834 |  |  |  |  | 
17 | NCI-H1703 |  |  |  |  |  |  |  |  |  |  | 1.01 | 0.685 | 0.291 | 0.228 | 0.276 |  |  |  |  | 
18 | NCI-H1299 |  |  |  |  |  |  |  |  |  |  | 0.99 | 1.01 | 0.981 | 0.938 | 0.773 |  |  |  |  | 
19 | NCI-H522 | 0.716 | 0.649 | 0.713 | 0.584 | 0.712 | 1.02 | 1.02 | 0.875 | 0.672 | 0.816 |  |  |  |  |  | 1.15 | 1.11 | 0.923 | 0.99 | 1.03
20 | NCI-H2342 | 0.59 | 0.47 | 0.494 | 0.51 | 0.572 | 0.625 | 0.655 | 0.763 | 0.685 | 0.72 |  |  |  |  |  |  | 0.868 | 0.837 | 0.745 | 0.853
21 | A549 | 0.0727 | 0.111 | 0.127 | 0.124 | 0.154 |  |  |  |  |  | 1.14 | 1.05 | 1.04 | 0.944 | 0.842 |  |  |  |  | 
